Experiments:
15-PGDH/HPGD = biological target: T1, 15-PGDH/HPGD (Homo sapiens, UniProt P15428); assay: hPGDH inhibitor screening biochemical assay; details: 10 nM enzyme, 15 μM Prostaglandin E2, 0.25 mM NAD, fluorescence ex/em 340/485 nm
T1 construct: purchased R&D System 5660-DH
T1 sequence (P15428 1-266): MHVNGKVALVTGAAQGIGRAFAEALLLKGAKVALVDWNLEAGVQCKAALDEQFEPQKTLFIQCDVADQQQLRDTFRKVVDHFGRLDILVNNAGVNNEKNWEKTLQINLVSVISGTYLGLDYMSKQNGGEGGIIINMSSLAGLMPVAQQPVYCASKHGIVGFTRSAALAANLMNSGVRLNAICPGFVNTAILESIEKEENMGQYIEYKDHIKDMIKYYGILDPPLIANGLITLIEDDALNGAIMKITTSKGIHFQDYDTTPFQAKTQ
Description: A hydroxyprostaglandin dehydrogenase inhibition screening biochemical assay can be performed to assess the synthesized inhibitors provided herein. Provided herein is an exemplary biochemical assay for hPGDH inhibitor screening.
The in vitro biochemical assay can be performed in white, 384 plates in total 20 μl reaction volume consisting of 10 nM of 15-PGDH/HPGD (R&D System #5660-DH), 15 μM Prostaglandin E2 (Sigma, Cat #P5640-10 MG) and 0.25 mM B-Nicotinamide adenine dinucleotide sodium salt (Sigma, Cat #N0632-5G) made in reaction buffer (50 mM Tris-HCl, pH 7.5, 0.01% Tween 20) at 10-point dose response curve for test/tool compounds. Briefly, 5 μl (4×) of compounds solution and 5 μl (final concentration, 10 nM) of enzyme solution is added to white 384 well plates and incubated for 10 mins at 37° C. 5 μl (4×) of Prostaglandin E2 and 5 μl (4×) of β-Nicotinamide adenine dinucleotide sodium salt is added to the wells and incubated for 10 mins at room temperature. Fluorescence is recorded at ex/em=340 nm/485 nm.

A549 = A549 EC50 (cell assay, method not described); format: cell-based

Compound	IC50 (15-PGDH/HPGD) [nM]	EC50 (A549; Homo sapiens, A549, A549) [nM]	EC50 (A549; A549) [nM]
O[C@H](COC1CC1)c1cnc2c(ccn2-c2cccc(-c3nnc[nH]3)c2)n1 [Compound 38A]	< 100	< 100	
O[C@@H](COC1CC1)c1cnc2c(cnn2-c2cccc(-c3nnc[nH]3)c2)c1 [Compound 37A]	< 100	100 to 1000	
CCCOC(C)(C)[C@@H](O)c1cnc2c(cnn2-c2cccc(-c3nnc[nH]3)c2)c1 [Compound 57B]	< 100	< 100	
CCOC1([C@@H](O)c2cnc3c(cnn3-c3ccc4nc(N5CCOCC5)nn4c3)c2)CC1 [Compound 62B]	100 to 1000	≥ 1000	
CCCCC(OC)c1cnc2c(ccn2-c2cc(Cl)cc(-c3nnc[nH]3)c2)c1 (stereo not shown) [Compound 16]	100 to 1000	100 to 1000	
CCOC(C)(C)[C@@H](O)c1cnc2c(cnn2-c2ccc(C(=O)O)cc2)c1 [Compound 53B]	< 100	< 100	
O=C(O)c1ccc(-n2ccc3nc([C@H](O)COC4CCC4)cnc32)cc1 [Compound 47B]	< 100	< 100	
CC(C)OC[C@@H](O)c1cnc2c(ccn2-c2cccc(-c3nnc[nH]3)c2)c1 [Compound 29B]	< 100	< 100	
CCOC(C)(C)C(O)c1cnc2c(cnn2-c2cccc(-c3nnc[nH]3)c2)c1 (single isomer, unassigned) [Compound 34A]	< 100		< 100
COC1([C@@H](O)c2cnc3c(cnn3-c3cccc(-c4nnc[nH]4)c3)c2)CC1 [Compound 59A]	< 100	100 to 1000	
O=C(NC[C@@H](O)c1cnc2c(cnn2-c2cccc(-c3nnc[nH]3)c2)c1)C1CC1 [Compound 39B]	100 to 1000	≥ 1000	
O[C@H](COC1CCC1)c1cnc2c(ccn2-c2cccc(-c3nnc[nH]3)c2)n1 [Compound 30A]	< 100	100 to 1000	
CCOC[C@@H](O)c1cnc2c(cnn2-c2cccc(-c3nnc[nH]3)c2)c1 [Compound 23B]	< 100	< 100	
CC(F)(F)[C@@H](O)c1cnc2c(ccn2-c2cccc(-c3nnc[nH]3)c2)c1 [Compound 5A]	< 100	< 100	
CCOC1([C@H](O)c2cnc3c(cnn3-c3ccc(C(=O)O)cc3)c2)CC1 [Compound 58A]	≥ 1000	≥ 1000	
O=C(O)c1ccc(-n2ccc3nc([C@@H](O)COC4CCC4)cnc32)cc1 [Compound 47A]	< 100	≥ 1000	
O[C@@H](COC1CCC1)c1cnc2c(cnn2-c2cccc(-c3nnc[nH]3)c2)c1 [Compound 24A]	< 100	100 to 1000	
COC(C)(C)CC[C@@H](O)c1cnc2c(cnn2-c2cccc(-c3nnc[nH]3)c2)c1 [Compound 55B]	< 100	< 100	
O=C(O)c1ccc(-n2ncc3cc([C@H](O)COC4CCC4)cnc32)cc1 [Compound 42B]	< 100	< 100	
CC(C)OC[C@H](O)c1cnc2c(cnn2-c2ccc3nc(N4CCOCC4)nn3c2)c1 [Compound 60B]	≥ 1000	100 to 1000	
CC(C)NC[C@@H](O)c1cnc2c(ccn2-c2cccc(-c3nnc[nH]3)c2)n1 [Compound 22B]	100 to 1000	≥ 1000	
CC(C)C[C@H](O)[C@H](O)c1cnc2c(ccn2-c2cccc(-c3nnc[nH]3)c2)c1 [Compound 3C, (1R,2S)-4-methyl-1-[1-[3-(4H-1,2,4-triazol-3-yl)phenyl]pyrrolo[2,3-b]pyridin-5-yl]pentane-1,2-diol]	< 100	100 to 1000	
CC(C)OCC[C@@H](O)c1cnc2c(cnn2-c2cccc(-c3nnc[nH]3)c2)c1 [Compound 44A]	< 100	< 100	
O=C(O)c1ccc(-n2ncc3cc(C(O)C4CC(F)(F)C4)cnc32)cc1 (stereo in doubt) [Compound 45B, (S)-4-(5-((3,3-difluorocyclobutyl)(hydroxy)methyl)-1H-pyrazolo[3,4-b]pyridin-1-yl)benzoic acid]	< 100	< 100	
O[C@@H](c1cnc2c(cnn2-c2cccc(-c3nnc[nH]3)c2)c1)C1C2CCCCC21 (stereo partly shown) [Compound 51B]	100 to 1000	100 to 1000	
CC(C)CC[C@H](O)c1cnc2c(ccn2-c2ccc(C(=O)O)cc2)n1 [Compound 40A]	< 100	< 100	
COC(C)(C)C[C@H](O)c1cnc2c(cnn2-c2cccc(-c3nnc[nH]3)c2)c1 [Compound 54B]	< 100	100 to 1000	
CC(C)NC[C@@H](O)c1cnc2c(cnn2-c2cccc(-c3nnc[nH]3)c2)c1 [Compound 27B, (S)-1-(1-(3-(4H-1,2,4-triazol-3-yl)phenyl)-1H-pyrazolo[3,4-b]pyridin-5-yl)-2-(isopropylamino) ethan-1-ol]	< 100	100 to 1000	

Further lines, results first:

IC50 (15-PGDH/HPGD) [nM]	EC50 (A549; Homo sapiens, A549, A549) [nM]	EC50 (A549; A549) [nM]	Compound
< 100	100 to 1000		CCC1(OC[C@H](O)c2cnc3c(cnn3-c3ccc(C(=O)O)cc3)c2)CC1 [Compound 93A]
100 to 1000	100 to 1000		C[C@@H](OC1CCC1)[C@@H](O)c1cnc2c(cnn2-c2ccc(C(=O)O)cc2)c1 [Compound 108B]
≥ 1000	≥ 1000		COC1([C@H](O)c2cnc3c(cnn3-c3cccc(-c4nnc[nH]4)c3)c2)CCC1 [Compound 65B]
100 to 1000	≥ 1000		CCOC1([C@@H](O)c2cnc3c(cnn3-c3cccc(-c4nnc[nH]4)c3)c2)CCC1 [Compound 83B]
100 to 1000	100 to 1000		CC(C)OC[C@@H](O)c1cnc2c(cnn2-c2ccc(CC(=O)O)cc2)c1 [Compound 71A]
100 to 1000	100 to 1000		C[S+]([O-])c1cccc(-n2ncc3cc([C@@H](O)COC4CCC4)cnc32)c1 (stereo partly shown) [Compound 125A]
≥ 1000	≥ 1000		CN(C)C(=O)c1cccc(-n2ncc3cc([C@H](O)COC4CCC4)cnc32)c1 [Compound 111B]
100 to 1000	≥ 1000		Cc1cc(-n2ncc3cc([C@H](O)COC4CCC4)cnc32)ccc1C(=O)O [Compound 95B]
< 100	≥ 1000		CC1(COC[C@@H](O)c2cnc3c(cnn3-c3ccc(C(=O)O)cc3)c2)CC1 [Compound 106B]
< 100	< 100		O[C@H](c1cnc2c(cnn2-c2cccc(-c3nnc[nH]3)c2)c1)[C@H]1CCOC1 [Compound 68B]
100 to 1000	≥ 1000		O=C(O)CCc1ccc(-n2ncc3cc([C@@H](O)COC4CCCC4)cnc32)cc1F [Compound 88A]
< 100	100 to 1000		Cc1nn(-c2ccc(C(=O)O)cc2)c2ncc([C@@H](O)COC3CC3)cc12 [Compound 126A]
100 to 1000	100 to 1000		CC(C)OC[C@H](O)c1cnc2c(cnn2-c2ccc(CCCC(=O)O)cc2)c1 [Compound 66B]
≥ 1000	≥ 1000		CCOC1([C@@H](O)c2cnc3c(cnn3-c3ccc(C(=O)O)cc3)c2)CCC1 [Compound 85B]
100 to 1000	100 to 1000		O[C@H](COC1CCC1)c1cnc2c(cnn2-c2ccc(N3CCCC3)cc2)c1 [Compound 75A]
100 to 1000	100 to 1000		CCOC1([C@H](O)c2cnc3c(cnn3-c3cccc(-c4nnc[nH]4)c3)c2)CCC1 [Compound 83A]
< 100	≥ 1000		CC1(C)CC(OC[C@@H](O)c2cnc3c(cnn3-c3ccc(C(=O)O)nc3)c2)C1 [Compound 116B]
< 100	< 100		CNC(=O)c1ccc(-n2ncc3cc([C@H](O)COC4CCC4)cnc32)cc1 [Compound 84A]
< 100	100 to 1000		O[C@H](COC1CCC1)c1cnc2c(cnn2-c2ccc(-c3nnn[nH]3)cc2)c1 [Compound 79A]
